A word on the IC50: it is the point on the concentration scale where inhibition reaches its midpoint.

These results are taken from US20170240522A1, “BENZOTHIOPHENE, BENZYLOXYBENZYLIDENE AND INDOLINE DERIVATIVES USEFUL FOR THE TREATMENT OF TUBERCULOSIS” (priority 2014, published 2017).

The test system of experiment [1] is Mtb-infected THP-1 macrophages. Format: cell-based, human.
For experiment [2], the system named is Mtb-GFP inside activated THP-1 cells. Format: cell-based, Mycobacterium tuberculosis. The note with it: activated THP-1, 10 μM.
For the next experiment, the system named is ATP-levels of Mtb. Description: Quantification of intracellular ATP levels. Format: cell-based, Mycobacterium tuberculosis. The settings on record: 10 μM, 24 hours. On the procedure:
(§1) Bacteria were grown for 24 hours in the presence of test compounds. The BacTiter-Glo microbial cell viability reagent (Promega) was used for the quantification of ATP according to the recommendations of the manufacturer. For EtBr uptake assays, bacteria were washed with PBS containing 0.05% Tween 80, OD600 was adjusted to 0.4 and 100 μl were pipetted into black 96 well plates. EtBr was added (4 μM final concentration) and fluorescence was read every 2 min. at 545/600 nm. Unpaired Student's T-tests were used for statistical analyses.

The next experiment deals with Ag85 complex proteins. Format: cell-based, Mycobacterium tuberculosis. The note with it: 5 μM.
The next experiment has as its system Mtb-Erdman. Nature of the experiment: Growth of Mtb in 7H9 broth. The settings on record: 25 μM. Format: cell-based, Mycobacterium tuberculosis.
For experiment [3], the system named is Mtb expressing GFP in infected fibroblasts. Format: cell-based, Mycobacterium tuberculosis. The settings on record: compound concentration 5 μM (FIG. 2D).
Another experiment relates to Mtb transcriptome. Nature of the experiment: RNA-seq and qRT-PCR of compound-treated Mtb. Format: cell-based, Mycobacterium tuberculosis. The note with it: RNA-seq, 5 μM. On the procedure: For the transcriptomic studies, bacteria were grown under the same conditions as for protein secretion assays. Drug exposure time was 8 hours with 5 μM of compound for RNA-seq experiments and confirmatory qRT-PCR. RNA was extracted with Trizol (Invitrogen) and treated with DNase I (Roche) prior to library preparation or generation of the cDNA template. cDNA was synthesized using the RevertAid First Strand cDNA Synthesis Kit (Fermentas) using random hexamer primer. cDNA corresponding to 10 ng of input RNA was used in each RT-PCR reaction supplemented with specific primer pairs (200 nM each) listed in Table S4 and SYBR-Green master mix (Applied Biosystems). Quantitative RT-PCR reactions were performed with the 7900HT Fast Real-Time PCR System (Applied Biosystems) with the following parameters: 50° C. for 2 min, 95° C. for 10 min, followed by 40 cycles of 95° C. for 15 s and 60° C. for 60 s. Melt curve analysis was used to confirm specific amplification for each primer pair. Unpaired Student's T-tests were used for statistical analyses.
For the RNA-seq library preparation 100 ng of total RNA were used in the TruSeq Stranded mRNA LT kit, according to the instructions provided by the manufacturer (Illumina). A small aliquot was analyzed on Qubit and Fragment Analyzer prior to sequencing on Illumina HiSeq using the TruSeq SR Cluster Generation Kit v3 and TruSeq SBS Kit v3. Data were processed with the Illumina Pipeline Software v1.82. RNA-seq data were deposited in the Gene Expression Omnibus (GEO) server at the National Center for Biotechnology Information (NCBI).
• All analyses in this study were carried out using the M. tuberculosis H37Rv annotation from the TubercuList database (http://tuberculist.epfl.ch/) (Lew et al., 2011). There are 4019 protein coding sequences (CDS) currently annotated in the genome, 73 genes encoding for stable RNAs, small RNAs and tRNAs. In order to quantify protein occupancy and transcription across the entire genome, 3080 intergenic regions (regions flanked by two non-overlapping CDS) were included, resulting in a total of 7172 features. • The single-ended sequence reads generated from RNA-seq experiments were aligned to the M. tuberculosis H37Rv genome (NCBI accession NC_000962.2) using Bowtie2 with default parameters (Langmead and Salzberg, 2012). Read counts for all annotated features were obtained with the htseq-count program (http://www.huber.embl.de/users/anders/HTSeq/doc/count.html). Regions where genes overlapped were excluded from counting. Reads spanning more than one feature were counted for each feature. Since the RNA library was strand-specific, the orientation of sequence reads had to correspond to the orientation of annotated features to be counted. Analysis of differential gene expression was carried out using the DESeq package (Anders and Huber, 2010).
For orientation: In qPCR the cycle at which signal appears reflects the starting amount.

The subject of the next experiment is EsxA. Format: cell-based, Mycobacterium tuberculosis.
Another experiment relates to MRC-5 lung fibroblasts. Nature of the experiment: Fibroblast survival assay (FSA). Format: cell-based. The note with it: Homo sapiens, MRC5; read-out: IC50 of protection of fibroblasts.
In experiment [4] the test system is mycobacterial outer membrane permeability. Nature of the experiment: Ethidium bromide (EtBr) uptake assay. Format: cell-based, Mycobacterium tuberculosis. The settings on record: 10 μM. On the procedure: as §1
To investigate whether BBH7 alters mycobacterial outer membrane permeability, which might explain the transcriptomic pattern associated with metal-ion toxicity, the Applicant performed ethidium bromide (EtBr) uptake assays after treatment with the compounds of interest. These assays identify altered outer membrane permeability by an increase of fluorescence after binding of EtBr to bacterial nucleic acids. […] This was not observed with BTP15.

The next experiment has as its system GroEL. The settings on record: BBH7 and BTP15 treatment.
A further experiment relates to ESX-1. Nature of the experiment: ESX-1 inhibitory activity of inhibitors of mycobacterium virulence (Table VII). Format: cell-based, Mycobacterium tuberculosis.

Method for GroEL: In brief, 30 ml of bacteria grown to mid-logarithmic phase (OD600 of 0.6 to 0.7) in Sauton's medium supplemented with 0.05% Tween 80 were centrifuged and resuspended in Sauton's medium without Tween. Compounds were added at concentrations as indicated and cells were grown further at 37° C. with shaking for 4 days. Cultures were harvested by centrifugation to obtain culture filtrates and cell pellets. Culture filtrates were concentrated 100-fold in 5-kDa cutoff Vivaspin columns (Sartorius). Cell lysates were prepared by bead beating bacterial pellets in lysis buffer with 100-μm glass beads.
For immunoblot analysis, 5 μg of protein were resolved by SDS-gel electrophoresis and transferred to nitrocellulose membranes. Membranes were blocked with TBS-buffer (3% milk powder) and incubated overnight with the desired primary antibody diluted in TNT-buffer supplemented with 1% BSA fraction V. Membranes were washed with TNT, incubated with the appropriate secondary antibody in TNT-BSA, washed again with TNT, and developed. GroEL2 was used as a lysis control for culture filtrates and as a loading control for cell lysates.

`CSC(=S)N/N=C(\C)c1ccc(OCc2ccc(F)cc2F)cc1` [BBH7, N′-{1-[4-(2,4-Difluoro-benzyloxy)-phenyl]ethylidene}-hydrazinecarbodithioic acid methyl ester]: the “rate of bacteria in acidic compartments (Lysotracker Red co-localization)” value in [1] is given as “significantly higher rate”. For the same compound, the intracellular bacterial load entry in experiment [2] is recorded as “greatly reduced the intracellular bacterial load”. The “mycobacterial ATP levels” value in the experiment with ATP-levels of Mtb is “not found to be reduced”. The Ag85 secretion result in the experiment with Ag85 complex proteins is “fully blocked”. For the same compound, the “growth inhibition of Mtb” value with Mtb-Erdman is “no growth inhibition”. For the same compound, the “GFP fluorescence of Mtb in infected fibroblasts” value in [3] is recorded as “no fluorescence was detected”. In the experiment with Mtb transcriptome, the “upregulated genes (number)” value is listed as 121 genes and the “upregulation of the metallothionein mymT” value was found to be 20 fold. The “differentially regulated genes (number)” value in the experiment with Mtb transcriptome (8 hours) is given as 144 genes. In addition, the EsxA secretion entry with EsxA is given as “dose-dependent secretion inhibition”. For the same compound, in the experiment on MRC-5 lung fibroblasts, the IC50 was 2400 nM. Besides, the “EtBr accumulation and fluorescence” value in experiment [4] was “increases EtBr accumulation and fluorescence”. Also, the “GroEL in the culture filtrate (cell lysis)” value in the experiment on GroEL is on record as “not observed”. In the experiment on ESX-1, this compound showed an Activity of 97%.
